pIC50: −log10 of the molar value.
Target: T1, human Trk A kinase (Homo sapiens, UniProt P04629)
T1 construct: His; made in house; host or cells: SF9 insect cells
Assay: Trk A kinase assay (Alphascreen)
Type: biochemical
Conditions: intracellular domain of HIS-tagged human Trk A, 70 μM ATP, 20 minutes, room temperature, read-out: Trk inhibitory activity IC50
Procedure: Trk A kinase activity was measured for its ability to phosphorylate synthetic tyrosine residues within a generic polypeptide substrate using an Amplified Luminescent Proximity Assay (Alphascreen) technology (PerkinElmer, 549 Albany Street, Boston, Mass.).
To measure Trk A kinase activity, the intracellular domain of a HIS-tagged human Trk A kinase (amino acids 442-796 of Trk A, Swiss-Prot Primary Accession Number P04629) was expressed in SF9 cells and purified using standard nickel column chromatography. After incubation of the kinase with a biotinylated substrate and adenosine triphosphate (ATP) for 20 minutes at room temperature, the kinase reaction was stopped by the addition of 30 mM ethylenediaminetetraacetic acid (EDTA). The reaction was performed in 384 well microtitre plates and the reaction products were detected with the addition of strepavidin coated Donor Beads and phosphotyrosine-specific antibodies coated Acceptor Beads using the EnVision Multilabel Plate Reader after an overnight incubation at room temperature.

T1 sequence (P04629 442-796): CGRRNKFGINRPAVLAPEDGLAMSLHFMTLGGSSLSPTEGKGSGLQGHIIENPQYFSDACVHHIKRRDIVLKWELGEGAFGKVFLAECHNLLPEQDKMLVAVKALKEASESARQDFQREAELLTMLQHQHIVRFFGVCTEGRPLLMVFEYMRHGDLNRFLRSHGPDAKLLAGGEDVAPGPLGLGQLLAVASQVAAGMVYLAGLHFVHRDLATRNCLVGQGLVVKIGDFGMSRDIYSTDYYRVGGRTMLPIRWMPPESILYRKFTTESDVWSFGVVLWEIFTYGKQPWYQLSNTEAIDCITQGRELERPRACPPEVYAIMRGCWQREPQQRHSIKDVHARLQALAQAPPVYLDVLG

SMILES: C[C@@H](c1ccc(F)cc1)n1cnc2ccc(Nc3cc(C4CC4)[nH]n3)nc21 [Example 6, (S)—N-(5-Cyclopronyl-1H-pyrazol-3-yl)-3-(1-(4-fluorophenyl)ethyl)-3H-imidazo[4,5-b]pyridin-5-amine]
- pIC50: 7.31

SMILES: CC(C)Oc1cc(Nc2ncc3ncn([C@@H](C)c4ccc(F)cc4)c3n2)n[nH]1 [Example 5, 9-[(1S)-1-(4-Fluorophenyl)ethyl]-N-(5-isopropoxy-1H-pyrazol-3-yl)-9H-purin-2-amine]
- pIC50: 7.20

SMILES: Fc1ccc(Cn2cnc3cc(Cl)c(Nc4cc(C5CC5)[nH]n4)nc32)cc1 [Example 18, 3-(4-Fluorobenzyl)-6-chloro-N-(5-cyclopropyl-1H-pyrazol-3-yl)-3H-imidazo[4,5-b]pyridin-5-amine]
- pIC50: 7.96

— patent publication US7622482B2, “Chemical compounds” (AstraZeneca, priority 2005, dated 2009)
